Measured values published in PubChem BioAssay (NCI).
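Dose response: 5 concentrations. Exposure: 48 h. Format: 96-well plates. Endpoint: linear interpolation; highest concentration if not reached. TGI: concentration producing complete growth inhibition.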

Tests used:
Test in all cases: inhibition of tumour cell growth, NCI panel, 48 h
[1] = test system: DU-145 prostate
[2] = test system: HOP-62 NSCLC
[3] = test system: LOX IMVI melanoma
[4] = test system: UO-31 renal
[5] = test system: COLO 205 colon
[6] = test system: CAKI-1 renal
[7] = test system: SF-539 CNS
[8] = test system: RXF 393 renal
[9] = test system: PC-3 prostate
[10] = test system: SW-620 colon
[11] = test system: UACC-257 melanoma
[12] = test system: OVCAR-3 ovarian
[13] = test system: EKVX NSCLC
[14] = test system: SF-268 CNS
[15] = test system: HCC-2998 colon
[16] = test system: U251 CNS
[17] = test system: A549 NSCLC
[18] = test system: SNB-19 CNS
[19] = test system: SK-MEL-2 melanoma
[20] = test system: UACC-62 melanoma
[21] = test system: MCF7 breast
[22] = test system: MOLT-4 leukemia
[23] = test system: NCI-H460 lung
[24] = test system: SNB-75 CNS
[25] = test system: HS 578T breast
[26] = test system: SR leukemia
[27] = test system: HL-60(TB) leukemia
[28] = test system: MALME-3M melanoma
[29] = test system: SK-MEL-5 melanoma
[30] = test system: A498 renal
[31] = test system: TK-10 renal
[32] = test system: HOP-92 NSCLC
[33] = test system: BT-549 breast
[34] = test system: HCT-15 colon
[35] = test system: SK-MEL-28 melanoma
[36] = test system: K-562 leukemia
[37] = test system: SK-OV-3 ovarian
[38] = test system: T-47D breast
[39] = test system: MDA-MB-435
[40] = test system: ACHN renal
[41] = test system: SN12C renal
[42] = test system: NCI/ADR-RES ovarian
[43] = test system: HCT-116 colon
[44] = test system: 786-0 renal
[45] = test system: MDA-MB-231 breast
[46] = test system: CCRF-CEM leukemia
[47] = test system: KM12 colon
[48] = test system: OVCAR-5 ovarian
[49] = test system: IGROV1 ovarian
[50] = test system: SF-295 CNS
[51] = test system: OVCAR-4 ovarian
[52] = test system: HT29 colon
[53] = test system: NCI-H226 lung
[54] = test system: M14 melanoma
[55] = test system: NCI-H522 lung
[56] = test system: NCI-H23 lung
[57] = test system: RPMI-8226 leukemia
[58] = test system: OVCAR-8 ovarian
[59] = test system: MDA-N

O=c1c(Sc2ncccn2)c(Sc2ncccn2)cnn1CCl
TGI [1]: 9.23 µM
TGI [2]: 8.05 µM
TGI [3]: 5.28 µM
TGI [4]: 3.45 µM
TGI [5]: 4.79 µM
TGI [6]: 5.89 µM
TGI [7]: 4 µM
TGI [8]: 3.46 µM
TGI [9]: 8.79 µM
TGI [10]: 17.9 µM
TGI [11]: 6.77 µM
TGI [12]: 10.8 µM
TGI [13]: 8.65 µM
TGI [14]: 9.57 µM
TGI [15]: 24 µM
TGI [16]: 19.7 µM
TGI [17]: 35.5 µM
TGI [18]: 32.8 µM
TGI [19]: 5.88 µM
TGI [20]: 19 µM
TGI [21]: 11.6 µM
TGI [22]: 10.6 µM
TGI [23]: 32.9 µM
TGI [24]: 34.6 µM
TGI [25]: 37 µM
TGI [26]: 12.4 µM
TGI [27]: 5 µM
TGI [28]: 4.25 µM
TGI [29]: 21.2 µM
TGI [30]: 36.3 µM
TGI [31]: 11.4 µM
TGI [32]: 7.38 µM
TGI [33]: 31 µM
TGI [34]: 11.8 µM
TGI [35]: 12.7 µM
TGI [36]: 20.5 µM
TGI [37]: 23.2 µM
TGI [38]: 14.2 µM
TGI [39]: 3.87 µM
TGI [40]: 5.45 µM
TGI [41]: 9.37 µM
TGI [42]: 24.4 µM
TGI [43]: 3.89 µM
TGI [44]: 4.79 µM
TGI [45]: 19 µM
TGI [46]: 7.68 µM
TGI [47]: 29.1 µM
TGI [48]: 21.1 µM
TGI [49]: 4.76 µM
TGI [50]: 30 µM
TGI [51]: 6.14 µM
TGI [52]: 4.67 µM
TGI [53]: > 76.8 µM
TGI [54]: 4.76 µM
TGI [55]: 2.37 µM
TGI [56]: 18.3 µM
TGI [57]: > 20.6 µM
TGI [58]: 7.53 µM
TGI [59]: 5.59 µM

O=C(O)CO/N=C1/C(c2c(O)[nH]c3ccccc23)=Nc2ccccc21
TGI [1]: > 100 µM
TGI [2]: > 100 µM
TGI [3]: > 100 µM
TGI [4]: > 100 µM
TGI [5]: > 100 µM
TGI [6]: > 100 µM
TGI [7]: > 100 µM
TGI [8]: 52.7 µM
TGI [9]: > 100 µM
TGI [10]: > 100 µM
TGI [11]: > 100 µM
TGI [12]: 69.9 µM
TGI [13]: > 100 µM
TGI [14]: > 100 µM
TGI [15]: > 100 µM
TGI [16]: > 100 µM
TGI [17]: > 100 µM
TGI [18]: > 100 µM
TGI [19]: 80.1 µM
TGI [20]: > 100 µM
TGI [21]: > 100 µM
TGI [22]: > 100 µM
TGI [23]: > 100 µM
TGI [24]: 74.4 µM
TGI [25]: > 100 µM
TGI [26]: > 100 µM
TGI [27]: > 100 µM
TGI [28]: 99.5 µM
TGI [29]: 80 µM
TGI [30]: > 100 µM
TGI [31]: > 100 µM
TGI [32]: > 100 µM
TGI [33]: > 100 µM
TGI [34]: > 100 µM
TGI [35]: > 100 µM
TGI [36]: > 100 µM
TGI [37]: 68.1 µM
TGI [38]: > 100 µM
TGI [39]: > 100 µM
TGI [40]: > 100 µM
TGI [41]: > 100 µM
TGI [42]: > 100 µM
TGI [43]: > 100 µM
TGI [44]: > 100 µM
TGI [45]: > 100 µM
TGI [46]: > 100 µM
TGI [47]: > 100 µM
TGI [48]: > 100 µM
TGI [49]: > 100 µM
TGI [50]: > 100 µM
TGI [51]: > 100 µM
TGI [52]: > 100 µM
TGI [54]: > 100 µM
TGI [55]: > 100 µM
TGI [56]: > 100 µM
TGI [57]: > 100 µM
TGI [58]: > 100 µM
TGI [59]: > 100 µM

CC(C)(CN)SCc1ccccc1
TGI [1]: > 100 µM
TGI [2]: > 100 µM
TGI [3]: > 100 µM
TGI [4]: > 100 µM
TGI [5]: > 100 µM
TGI [6]: > 100 µM
TGI [7]: > 100 µM
TGI [8]: > 100 µM
TGI [9]: > 100 µM
TGI [10]: > 100 µM
TGI [11]: > 100 µM
TGI [12]: > 100 µM
TGI [13]: > 100 µM
TGI [14]: > 100 µM
TGI [16]: > 100 µM
TGI [17]: > 100 µM
TGI [18]: > 100 µM
TGI [19]: > 100 µM
TGI [20]: > 100 µM
TGI [21]: > 100 µM
TGI [22]: > 100 µM
TGI [23]: > 100 µM
TGI [24]: > 100 µM
TGI [25]: > 100 µM
TGI [26]: > 100 µM
TGI [27]: > 100 µM
TGI [28]: > 100 µM
TGI [29]: > 100 µM
TGI [30]: > 100 µM
TGI [31]: > 100 µM
TGI [32]: > 100 µM
TGI [33]: > 100 µM
TGI [34]: > 100 µM
TGI [35]: > 100 µM
TGI [36]: > 100 µM
TGI [37]: > 100 µM
TGI [38]: > 100 µM
TGI [39]: > 100 µM
TGI [40]: > 100 µM
TGI [41]: > 100 µM
TGI [42]: > 100 µM
TGI [43]: > 100 µM
TGI [44]: > 100 µM
TGI [45]: > 100 µM
TGI [46]: > 100 µM
TGI [47]: > 100 µM
TGI [48]: > 100 µM
TGI [49]: > 100 µM
TGI [50]: > 100 µM
TGI [51]: > 100 µM
TGI [52]: > 100 µM
TGI [53]: > 100 µM
TGI [54]: > 100 µM
TGI [55]: > 100 µM
TGI [57]: > 100 µM
TGI [58]: > 100 µM
TGI [59]: > 100 µM
